From US6586402B1, “LH-RH peptide analogues, their uses and pharmaceutical compositions containing them” (Laboratoire Theramex, priority 1997, dated 2003)
Where two headings read alike, the source gives them in different places. Square brackets hold non-standard residues; d marks the D form. Peptide text beside a SMILES is read from it. * marks the point of attachment. dPhe(4-Cl) = N[C@H](Cc1ccc(Cl)cc1)C(=O)O; d2Nal = N[C@H](Cc1ccc2ccccc2c1)C(=O)O; d(hCit) = NC(=O)NCCCC[C@@H](N)C(=O)O; Lys(iPr) = CC(C)NCCCC[C@H](N)C(=O)O; dCit = NC(=O)NCCC[C@@H](N)C(=O)O; tBuAla = CC(C)(C)C[C@H](N)C(=O)O; d3Pal = N[C@H](Cc1cccnc1)C(=O)O; pGlu = O=C1CC[C@@H](C(=O)O)N1; Nicotinoyl = O=C(c1cccnc1)*

What was measured:
[1] = target: T1, LH-RH receptors (Rattus norvegicus, UniProt P30969)
T1 sequence (P30969 1-327): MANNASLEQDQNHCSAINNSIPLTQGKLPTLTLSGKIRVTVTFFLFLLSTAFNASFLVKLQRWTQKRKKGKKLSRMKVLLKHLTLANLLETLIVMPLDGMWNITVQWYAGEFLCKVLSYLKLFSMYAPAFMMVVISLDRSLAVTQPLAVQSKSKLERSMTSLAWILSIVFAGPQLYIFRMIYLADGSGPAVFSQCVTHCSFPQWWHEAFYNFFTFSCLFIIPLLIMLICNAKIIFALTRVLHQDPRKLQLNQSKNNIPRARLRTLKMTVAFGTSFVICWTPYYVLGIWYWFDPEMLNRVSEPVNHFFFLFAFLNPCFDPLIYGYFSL

[2] = target: T1, LH-RH receptors; experiment: biochemical
[3] = target: T1, LH-RH receptors; experiment: Stimulation of testosterone secretion in adult male rats after subcutaneous injection (agonist activity in vivo); design: exert an agonist activity upon the LH-RH receptors in vivo; from tissue; host or cells: whole animal, adult male Sprague-Dawley rats; species or system Sprague-Dawley rats; conditions: for Total plasma testosterone: Table 2, 10 ng/kg subcutaneous in PBS, blood two hours later, male Sprague-Dawley rats, vehicle 2.7 ± 0.3
Procedure: The peptides according to the general formula (IIa) exert an agonist activity upon the LH-RH receptors in vivo, resulting in the stimulation of LH secretion by the pituitary, which, in males, stimulates the secretion of testosterone by the testis.
Two hours later, blood samples were drawn for total plasma testosterone determination by direct radioimmunoassay (Immunotech).
At this intermediate dose of 10 ng/kg, several examples with Npg^7 or Ada^7 in place of Leu^7 according to the invention were screened for agonistic activity (Tables 2 and 3). When available from Bachem (France) or Sigma (France), the corresponding standard agonist with Leu^7 was tested for comparison.

## CC(=O)N[C@H](Cc1ccc2ccccc2c1)C(=O)N[C@H](Cc1ccc(Cl)cc1)C(=O)N[C@H](Cc1cccnc1)C(=O)N[C@@H](CO)C(=O)N[C@@H](CCCCNC(=O)c1cccnc1)C(=O)N[C@H](CCCCNC(=O)c1cccnc1)C(=O)N[C@@H](CC(C)(C)C)C(=O)N[C@@H](CCCCNC(C)C)C(=O)N1CCC[C@H]1C(=O)N[C@H](C)C(N)=O [Example 15, AcD-Nal-D-pClPhe-D-Pal-Ser-NicLys-D-NicLys-Npg-IprLys-Pro-D-Ala-NH2] (Ac-[d2Nal][dPhe(4-Cl)][d3Pal]SK(Nicotinoyl)[dK](Nicotinoyl)[tBuAla][Lys(iPr)]P[dA]-NH2)
[1]; 0.1 μg/rat s.c.
  % of inhibition of ovulation: 0%
[1]; 0.25 μg/rat s.c.
  % of inhibition of ovulation: 60%
[1]; 0.5 μg/rat s.c.
  % of inhibition of ovulation: 100%
[1]; 1 μg/rat s.c.
  % of inhibition of ovulation: 80%
[2]
  Ki: 589 pM

## CCNC(=O)[C@@H]1CCCN1C(=O)[C@H](CCCNC(=N)N)NC(=O)[C@H](CC(C)(C)C)NC(=O)[C@@H](Cc1c[nH]c2ccccc12)NC(=O)[C@H](Cc1ccc(O)cc1)NC(=O)[C@H](CO)NC(=O)[C@H](Cc1c[nH]c2ccccc12)NC(=O)[C@H](Cc1c[nH]cn1)NC(=O)[C@@H]1CCC(=O)N1 [Example 12, pGlu-His-Trp-Ser-Tyr-D-Trp-Npg-Arg-Pro-NEt]
[2]
  Ki: 162 pM
[3]
  Total plasma testosterone: 20.5 ± 5.2 nmol/L

## CC(=O)N[C@H](Cc1ccc2ccccc2c1)C(=O)N[C@H](Cc1ccc(Cl)cc1)C(=O)N[C@H](Cc1cccnc1)C(=O)N[C@@H](CO)C(=O)N[C@@H](Cc1ccc(O)cc1)C(=O)N[C@H](CCCCNC(N)=O)C(=O)N[C@@H](CC(C)(C)C)C(=O)N[C@@H](CCCNC(=N)N)C(=O)N1CCC[C@H]1C(=O)N[C@H](C)C(N)=O [Example 19, AcD-Nal-D-pClPhe-D-Pal-Ser-Tyr-D-HCit-Npg-Arg-Pro-D-Ala-NH2] (Ac-[d2Nal][dPhe(4-Cl)][d3Pal]SY[d(hCit)][tBuAla]RP[dA]-NH2)
[1]; 0.25 μg/rat s.c.
  % of inhibition of ovulation: 40%
[1]; 1 μg/rat s.c.
  % of inhibition of ovulation: 100%
[2]
  Ki: 77.6 pM

## CC(=O)N[C@H](Cc1ccc2ccccc2c1)C(=O)N[C@H](Cc1ccc(Cl)cc1)C(=O)N[C@H](Cc1cccnc1)C(=O)N[C@@H](CO)C(=O)N[C@@H](Cc1ccc(O)cc1)C(=O)N[C@H](CCCNC(N)=O)C(=O)N[C@@H](CC(C)(C)C)C(=O)N[C@@H](CCCNC(=N)N)C(=O)N1CCC[C@H]1C(=O)N[C@H](C)C(N)=O [Example 16, AcD-Nal-D-pClPhe-D-Pal-Ser-Tyr-D-Cit-Npg-Arg-Pro-D-Ala-NH2] (Ac-[d2Nal][dPhe(4-Cl)][d3Pal]SY[dCit][tBuAla]RP[dA]-NH2)
[1]; 0.25 μg/rat s.c.
  % of inhibition of ovulation: 20%
  Number of ovulating females/total number of treated females: 4/5
[1]; 1 μg/rat s.c.
  % of inhibition of ovulation: 100%
  Number of ovulating females/total number of treated females: 0/5
  antiovulatory activity in words: maximal or sub-maximal activity
[2]
  Ki: 67.6 pM

## CC(=O)N[C@H](Cc1ccc2ccccc2c1)C(=O)N[C@H](Cc1ccc(Cl)cc1)C(=O)N[C@H](Cc1cccnc1)C(=O)N[C@@H](CO)C(=O)N[C@@H](CCCCNC(=O)c1cccnc1)C(=O)N[C@H](CCCCNC(=O)c1cccnc1)C(=O)N[C@@H](CC(C)C)C(=O)N[C@@H](CCCCNC(C)C)C(=O)N1CCC[C@H]1C(=O)N[C@H](C)C(N)=O [Antide, reference compound] (Ac-[d2Nal][dPhe(4-Cl)][d3Pal]SK(Nicotinoyl)[dK](Nicotinoyl)L[Lys(iPr)]P[dA]-NH2)
[1]; 0.5 μg/rat s.c.
  % of inhibition of ovulation: 20%
[1]; 1 μg/rat s.c.
  % of inhibition of ovulation: 69%
[1]; 2.5 μg/rat s.c.
  % of inhibition of ovulation: 67%
[1]; 5 μg/rat s.c.
  % of inhibition of ovulation: 100%
[1]; 10 μg/rat s.c.
  % of inhibition of ovulation: 100%
[2]
  Ki: 692 pM

## CC(=O)N[C@H](Cc1ccc2ccccc2c1)C(=O)N[C@H](Cc1ccc(Cl)cc1)C(=O)N[C@H](Cc1cccnc1)C(=O)N[C@@H](CO)C(=O)N[C@@H](Cc1ccc(O)cc1)C(=O)N[C@H](CCCNC(N)=O)C(=O)N[C@@H](CC(C)(C)C)C(=O)N[C@@H](CCCCNC(C)C)C(=O)N1CCC[C@H]1C(=O)N[C@H](C)C(N)=O [Example 17, AcD-Nal-D-pClPhe-D-Pal-Ser-Tyr-D-Cit-Npg-IprLys-Pro-D-Ala-NH2] (Ac-[d2Nal][dPhe(4-Cl)][d3Pal]SY[dCit][tBuAla][Lys(iPr)]P[dA]-NH2)
[1]; 0.25 μg/rat s.c.
  % of inhibition of ovulation: 80%
  Number of ovulating females/total number of treated females: 1/5
[1]; 0.5 μg/rat s.c.
  % of inhibition of ovulation: 43%
  Number of ovulating females/total number of treated females: 4/7
[1]; 0.75 μg/rat s.c.
  % of inhibition of ovulation: 100%
  Number of ovulating females/total number of treated females: 0/7
[1]; 1 μg/rat s.c.
  % of inhibition of ovulation: 100%
  Number of ovulating females/total number of treated females: 0/12
  antiovulatory activity in words: maximal or sub-maximal activity
[1]; dose range studied, s.c.
  dose relation of the inhibition of ovulation, in words: especially active, but its effects were not related to the dose
[2]
  Ki: 191 pM

## CC(C)(C)C[C@H](NC(=O)[C@@H](Cc1ccccc1)NC(=O)[C@H](Cc1ccc(O)cc1)NC(=O)[C@H](CO)NC(=O)[C@H](Cc1c[nH]c2ccccc12)NC(=O)[C@H](Cc1c[nH]cn1)NC(=O)[C@@H]1CCC(=O)N1)C(=O)N[C@@H](CCCNC(=N)N)C(=O)N1CCC[C@H]1C(=O)NCC(N)=O [Example 9, pGlu-His-Trp-Ser-Tyr-D-Phe-Npg-Arg-Pro-Gly-NH2] ([pGlu]HWSY[dF][tBuAla]RPG-NH2)
[2]
  Ki: 2340 pM
[3]; 10 ng/kg s.c., comment on Tables 2 and 3
  agonistic potency in words: range of potency similar to that of leuprorelin or tryptorelin
[3]
  Total plasma testosterone: 30.9 ± 3.6 nmol/L

## CC(=O)N[C@H](Cc1ccc2ccccc2c1)C(=O)N[C@H](Cc1ccc(Cl)cc1)C(=O)N[C@H](Cc1cccnc1)C(=O)N[C@@H](CO)C(=O)N[C@@H](Cc1ccc(O)cc1)C(=O)N[C@H](CCCCNC(N)=O)C(=O)N[C@@H](CC(C)(C)C)C(=O)N[C@@H](CCCCNC(C)C)C(=O)N1CCC[C@H]1C(=O)N[C@H](C)C(N)=O [Example 18, AcD-Nal-D-pClPhe-D-Pal-Ser-Tyr-D-HCit-Npg-IprLys-Pro-D-Ala-NH2] (Ac-[d2Nal][dPhe(4-Cl)][d3Pal]SY[d(hCit)][tBuAla][Lys(iPr)]P[dA]-NH2)
[1]; 0.25 μg/rat s.c.
  % of inhibition of ovulation: 20%
[1]; 1 μg/rat s.c.
  % of inhibition of ovulation: 80%
[2]
  Ki: 85.1 pM

## C[C@@H](NC(=O)[C@H](Cc1ccc(O)cc1)NC(=O)[C@H](CO)NC(=O)[C@H](Cc1c[nH]c2ccccc12)NC(=O)[C@H](Cc1c[nH]cn1)NC(=O)[C@@H]1CCC(=O)N1)C(=O)N[C@@H](CC(C)(C)C)C(=O)N[C@@H](CCCNC(=N)N)C(=O)N1CCC[C@H]1C(=O)NCC(N)=O [Example 3, pGlu-His-Trp-Ser-Tyr-D-Ala-Npg-Arg-Pro-Gly-NH2] ([pGlu]HWSY[dA][tBuAla]RPG-NH2)
[2]
  Ki: 269 pM
[3]
  Total plasma testosterone: 16.7 ± 1.9 nmol/L

## CCNC(=O)[C@@H]1CCCN1C(=O)[C@H](CCCNC(=N)N)NC(=O)[C@H](CC(C)(C)C)NC(=O)[C@@H](Cc1ccccc1)NC(=O)[C@H](Cc1ccc(O)cc1)NC(=O)[C@H](CO)NC(=O)[C@H](Cc1c[nH]c2ccccc12)NC(=O)[C@H](Cc1c[nH]cn1)NC(=O)[C@@H]1CCC(=O)N1 [Example 10, pGlu-His-Trp-Ser-Tyr-D-Phe-Npg-Arg-Pro-NEt]
[2]
  Ki: 229 pM
[3]
  Total plasma testosterone: 23.5 ± 4.0 nmol/L
